This passage reports Kd results from paper doi:10.1101/2020.04.16.044321v1 (biorxiv, 2020).

The assay addresses hemopexin (Homo sapiens, UniProt P02790). Description: biochemical.

hemopexin, sequence (P02790 24-462): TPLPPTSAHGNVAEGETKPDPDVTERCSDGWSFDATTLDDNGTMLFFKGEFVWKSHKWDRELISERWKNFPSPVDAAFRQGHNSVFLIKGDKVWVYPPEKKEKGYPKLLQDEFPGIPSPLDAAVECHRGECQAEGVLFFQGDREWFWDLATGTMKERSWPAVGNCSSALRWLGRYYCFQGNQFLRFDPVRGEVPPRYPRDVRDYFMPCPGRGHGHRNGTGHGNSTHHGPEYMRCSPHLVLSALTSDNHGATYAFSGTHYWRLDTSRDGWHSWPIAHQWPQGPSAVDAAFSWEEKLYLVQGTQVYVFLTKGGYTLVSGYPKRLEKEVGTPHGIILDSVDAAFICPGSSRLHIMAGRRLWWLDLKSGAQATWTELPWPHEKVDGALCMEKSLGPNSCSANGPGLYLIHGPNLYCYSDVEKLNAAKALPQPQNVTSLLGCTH

As a reminder, the Kd is the constant that tells how readily two partners part at equilibrium. Read a low Kd as a tighter complex. `C=CC1=C(C)C2=Cc3c(C=C)c(C)c4[n]3[Fe+][n]3c(c(C)c(CCC(=O)O)c3=CC3=NC(=C4)C(C)=C3CCC(=O)O)=CC1=N2` [heme] gave a Kd of 0.32 ± 0.04 nM.
